In US8853171B2, “1′-substituted carba-nucleoside analogs for antiviral treatment” (Gilead Sciences, Inc., priority 2008, dated 2014):

test system: HCV replicon cells; assay: HCV EC50 determination: replicon luciferase assay; format: cell-based; conditions: Hepatitis C virus, 72 h, 3 days incubation, luciferase activity
Protocol: Replicon cells were seeded in 96-well plates at a density of 8×10^3 cells per well in 100 μL of culture medium, excluding Geneticin. Compound was serially diluted in 100% DMSO and then added to the cells at a 1:200 dilution, achieving a final concentration of 0.5% DMSO and a total volume of 200 μL. Plates were incubated at 37° C. for 3 days, after which culture medium was removed and cells were lysed in lysis buffer provided by Promega's luciferase assay system. Following the manufacturer's instruction, 100 μL of luciferase substrate was added to the lysed cells and luciferase activity was measured in a TopCount luminometer.

| SMILES | EC50 |
| --- | --- |
| CC(C)(C)C(=O)SCCOP(=O)(OCCSC(=O)C(C)(C)C)OC[C@H]1O[C@@](C#N)(c2ccc3c(N)ncnn23)[C@](C)(O)[C@@H]1O [Compound 6] | < 1 µM |
| N#C[C@@]1(c2ccc3c(N)ncnn23)O[C@H](CO)[C@@H](O)[C@H]1O [Compound 13] | 1 to 10 µM |
| C[C@@]1(O)[C@H](O)[C@@H](CO)OC1(O)c1ccc2c(N)ncnn12 (some centres unmarked) [Compound 2] | 10 to 100 µM |
| CO[C@@]1(c2ccc3c(N)ncnn23)O[C@H](CO)[C@@H](O)[C@@]1(C)O [Compound 3] | 10 to 100 µM |
| CO[C@@]1(c2ccc3c(N)ncnn23)O[C@H](CO)[C@@H](O)[C@H]1O [Compound 12] | 1 to 10 µM |
| C[C@@]1(O)[C@H](O)[C@@H](CO)O[C@@]1(C#N)c1ccc2c(N)ncnn12 [Compound 5] | 10 to 100 µM |
| C[C@@]1(c2ccc3c(N)ncnn23)O[C@H](CO)[C@@H](O)[C@@]1(C)O [Compound 4] | 10 to 100 µM |

target: T1, HCV Δ21 NS5b polymerase (Hepatitis C virus genotype 1b, UniProt Q9WMX2); assay: HCV IC50 determination: NS5b polymerase assay; format: biochemical; conditions: not given
T1 construct: 75 nM HCV Δ21 NS5b polymerase
Protocol: Assay Protocol: NS5b polymerase assay (40 μL) was assembled by adding 28 μL polymerase mixture (final concentration: 50 mM Tris-HCl at pH 7.5, 10 mM KCL, 5 mM MgCl2, 1 mM DTT, 10 mM EDTA, 4 ng/μL of RNA template, and 75 nM HCV Δ21 NS5b polymerase) to assay plates followed by 4 μL of compound dilution. The polymerase and compound were pre-incubated at 35° C. for 10 minute before the addition of 8 μL of nucleotide substrate mixture (33P-α-labeled competing nucleotide at KM and 0.5 mM of the remaining three nucleotides). The assay plates were covered and incubated at 35° C. for 90 mM. Reactions were then filtered through 96-well DEAE-81 filter plates via vacuum. The filter plates were then washed under vacuum with multiple volumes of 0.125 M NaHPO4, water, and ethanol to remove unincorporated label. Plates were then counted on TopCount to assess the level of product synthesis over background controls. The IC50 value is determined using Prism fitting program.

| SMILES | IC50 |
| --- | --- |
| C[C@@]1(O)[C@H](O)[C@@H](COP(=O)(O)O)O[C@@]1(C#N)c1ccc2c(N)ncnn12 [Compound 17] | < 1 µM |
